Assay results published in patent US20130157261A1, “Compositions and Methods for Quantitative Histology, Calibration of Images in Fluorescence Microscopy, and ddTUNEL Analyses” (The Methodist Hospital Research Institute, priority 2011, published 2013).

Legend:
[1] = test system: normal human astrocytes (NHA); settings: ethylmercury treatment (FIG. 21)
Description: Normal human astrocytes (NHA) were obtained from Lonza (Walkersville, Md., USA) and grown subject to their recommendations. NHA were grown to confluency in Astrocyte Cell Basal Medium supplemented with 3% FBS, Glutamine, Insulin, fhEGF, GA-1000 and ascorbic acid in 16-well Lab-Tek slide chambers (Nalge Nunc, Rochester, N.Y., USA), in a total volume of 240 μL.
NHA were incubated for 1 hour with probes before fixation. Fixation in buffered paraformaldehyde (PFA) was performed in two stages. Firstly, a 50-4 aliquot of ice-cold 8% PFA was added to each well, then gently aspirated and the wells were twice washed with ice-cold 2% PFA and then allowed to completely fix at 4° C. After fixation, cells were washed twice in 1×PBS (Thermo Fisher Scientific, Rockford, Ill., USA). The tanks were then removed from the slides, the well area covered with Fluoromount-G (SouthernBiotech, Ill., USA), cover-slipped and sealed with nail varnish.
3% FCS was present in the NHA medium throughout the time-course. To generate the time-course shown in FIG. 17A and FIG. 17B, NHA were exposed to Mitotracker, H2DCFAM and Hoechst at t=0.

U87 cells [2] = assay: in situ ligation of blunt-ended and 3′-T-OH overhanging oligonucleotide probes (DNA breaks); assay type: cell-based, human; settings: for blebbing of treated cells: microscopy; for number of 3′-T-OH overhang ends / overhanging cuts / number of blunt-ended breaks: 24 hrs after treatment at LD50 concentration
Description: U87, human glioblastoma, cells were obtained from the American TypeCulture Collection (ATCC) Manassas, Va. and grown as recommended in DMEM with penicillin/streptomycin and 10% FBS. Following 3 weeks of growth and splitting cells were plated into slide chambers (Lab-Tek Nalge Nunc International, Rochester, N.Y., USA) at 2×10^5 cells per mL, and were allowed to grow thereon for 24 hrs until confluence was reached.
Twenty-four hrs after treatment, all cells were fixed with 4% PFA for one hr and washed 3× in 0.1 M PBS, incubated in 0.1% Triton-X100® for 6 min and then washed in 0.1 M PBS buffer. Each slide was assayed for double-strand DNA blunt-ended and overhanging 3′-OH ends, and counterstained for DNA with YO-PRO-1®.
The 3′-OH T specific overhang and blunt-ended DNA probes, shown in FIG. 2A and FIG. 2B, were ligated to the known oligonucleotide standard phantoms the amine apex oligoneuleotides, or alternatively, to fixed permeabilized U87 cells. The sections were pre-incubated in the ligation buffer without the probe (66 mM Tris-HCl, pH 7.5, 5 mM MgCl2, 0.1 mM dithioerythritol, 1 mM ATP, and 15% polyethylene glycol-8000) to ensure even saturation. The buffer was aspirated, and the full ligation mix containing the ligation buffer with probe, 35 μg/μL, and 0.5 U/μL T4 DNA ligase (New England BioLabs; Ipswich, Mass., USA) was applied to the sections, which were then incubated in a humidified box overnight.
The 3′-OH T-specific overhanging- and blunt-ended DNA probes shown in FIG. 11B were ligated to oligonucleotide standard phantoms, mammary gland or to fixed, permeabilized U87 cells. The sections were pre-incubated with ligation buffer in the absence of the probe (66 mM-Tris HCl, pH 7.5, 5 mM MgCl2, 0.1 mM dithioerythritol, 1 mM ATP, and 15% polyethylene glycol-8000) to ensure even saturation. The buffer was aspirated and the full ligation mix [ligation buffer+probe (35 μg/μL) and T4 DNA ligase (0.5 U/μL)] was applied to the sections, which were then incubated in a humidified box overnight. Controls consisted of probe-ligated phantoms, which were then incubated with either EcoRI or BamHI, in the appropriate buffer for 4 hrs, washed, cover-slipped using Fluoromount-G™ (SouthernBiotech), and then sealed with nail varnish.
(§1) Human glioblastoma cells (U87) (American Type Culture Collection, Manassas, Va., USA), and grown as recommended in DMEM with penicillin/streptomycin and 10% FBS. Following 3-weeks' growth and splitting, 5 mL of cells were plated into microscope slide chambers (Lab-Tek) at […], and were allowed to grow in the slide chambers for 24 hrs, until they became confluent. […] 24 hrs after treatment, all cells were fixed with 2% PFA for 1 hr, washed 3× in 0.1 M PBS, then incubated in 0.1% Triton X-100® for 6 min and finally washed in 0.1 M PBS buffer. Each slide was assayed for double-strand blunt (red) and overhanging (blue) DNA damage, and counterstained for DNA with YO-PRO-1® (green) or for γH2A.X with an FITC-labeled IgG antibody (green).

U87 cells [3] = assay: ddTUNEL assay (3′OH DNA ends); assay type: cell-based, human; settings: for ddTUNEL: approximate concentration of the probe in the cells: U87 cells following treatment, nominal path length of 6 μm, control 3.7
Description: ddTUNEL reaction buffer was prepared fresh daily by diluting a previously-frozen) stock solution of ddTUNEL buffer 1:5, and solution of cobalt chloride 1:25.
Stock reaction buffer, 5×: 125 mM Tris-HCl, 1 M sodium cacodylate, 1.25 mg/mL BSA, pH 6.6. Stock reaction CoCl2 solution, 25×: 25 mM cobalt chloride.
1. Wash samples twice in ddTUNEL reaction buffer for 10 min each.
2. Incubate sections in ddTUNEL reaction solution for 1-2 h at 37-40° C. in humidified chamber or overnight at room temperature.
5. Incubate with fluorescently labeled avidin or streptavidin ([…]) for 30 min.
(§2) U87 human glioblastoma cells were grown in DMEM with penicillin/streptomycin and 10% fetal bovine serum (FBS) (Invitrogen). Following 3-weeks' growth, 5 mL of cells were plated into slide chambers (Lab-Tek, Nalge Nunc International, Rochester, N.Y., USA) at 2×10^5 cells per mL, and grown for 24 hrs at 37° C. in a 5% CO2 incubator. […] 24-hrs' later, cells were fixed with 2% PFA, then permeabilized in 0.1% Triton X-100® as described above.

U87 cells [4] = assay: Fpg-ddTUNEL assay (oxidized/acylated DNA bases), with or without NaBH4 reduction; assay type: cell-based, human; settings: for Fpg-ddTUNEL: approximate concentration of the probe in the cells: U87 cells following treatment, nominal path length of 6 μm, control 0.9; for effect of NaBH4 reduction on the Fpg-ddTUNEL signal / oxo-base levels: ethanolic NaBH4
Description: Each sample was incubated in 25 mM sodium borohydride in 70% ethanol for 30 min. The sample was then washed twice in 0.1 M PBS. Typically, a slide box was employed, and it was half-filled with reducing solution so that half the sample(s) on the slide were reduced.
The sample was washed twice in 10 mM HEPES, 10 mM NaCl, 2 mM EDTA and 0.1% BSA and then ≈50 μL of the same buffer containing 100 U/mL of Fpg was applied to each of the sections, which were then incubated in a humidified box for ≧4 hr. The sample was washed twice in 100 mM PBS, and then twice in NEBuffer3. Approximately 50 μL of the same buffer containing 100 U/mL of CIAP was then applied to each section, and incubated for ≧2 hrs.
1. After completing both ddTUNEL and CIAP-ddTUNEL, each sample is washed twice in Fpg-buffer (Affymetrix) for 10 min.
2. Samples are then incubated in 100 U/mL Fpg (Affymetrix) in Fpg Buffer for 2 hr at 37° C. (or, alternatively, overnight at room temperature).
Following ddTUNEL and CIAP-ddTUNEL, capping 3′OH/3′PO4 ends, samples were washed twice in 10 mM HEPES, 10 mM NaCl, 2 mM EDTA and 0.1% BSA and then ≈50 μL of the same buffer containing 100 U/mL of Fpg was applied to each of the sections, and then incubated in a humidified box ≧4 hrs. Each sample was washed twice in 100 mM PBS, twice in NEBuffer3 and ≈50 μL of the same buffer containing 100 U/mL of CIAP was applied to each section and incubated for ≧2 hr; samples then underwent a third round of ddTUNEL.
as §2

U87 cells [5] = assay: LD50 of stressors on the cells over a 24-hr incubation; assay type: cell-based, human
U87 cells [6] = assay: γ-H2A.X histone labelling with FITC-labeled antibody; assay type: cell-based, human; settings: 24 hrs
Description: FITC-labeled Anti-H2A.X histone monoclonal antibody (BioLegend, San Diego, Calif.) was used as an internal control for DNA breaks, at a 1/50 dilution after the samples were blocked with 10% horse serum.
as §1
After incubation with 10% horse sera and washing, Ser139-phosphorylated H2A.X histone was imaged using an FITC-labeled monoclonal antibody (Biolegend, San Diego, Calif., USA) (1:500) following the methods of the manufacturer. Immune cell marker CD3ε was imaged using an FITC-labeled monoclonal antibody (Santa Cruz Biotechnologies, Santa Cruz, Calif.) (also at 1:500) as recommended by the manufacturer.

C[CH2][Hg] [ethylmercury]
formation of dichlorofluorescein from H2DCF-AM greater than superoxide/carbonyl formation [1]: approximately 20%

C[n+]1ccc(-c2cc[n+](C)cc2)cc1 [Paraquat]
blebbing of treated cells (U87 cells [2]; 24 hrs): no blebbing apparent
blebbing of treated cells (U87 cells [2]; 24 hrs, listed as paraquat): no evidence of blebbing
ddTUNEL: approximate concentration of the probe in the cells (U87 cells [3]): 37.2 µM
Fpg-ddTUNEL: approximate concentration of the probe in the cells (U87 cells [4]): 6.3 µM
LD50 (U87 cells [5]): 300 µM
share of γ-H2AX found in the cytosol (U87 cells [6]): 65%

Cn1nnc2c(C(N)=O)ncn2c1=O [Temozolomide]
number of 3′-T-OH overhang ends / overhanging cuts (U87 cells [2]): ~350 per million base pairs
number of blunt-ended breaks (U87 cells [2]): approximately 900 per million base pairs
difference in levels of blunt-end breaks vs control cells (U87 cells [2]; 24 hrs, Example 2): greater than 30 ×
ddTUNEL: approximate concentration of the probe in the cells (U87 cells [3]): 8.7 µM
Fpg-ddTUNEL: approximate concentration of the probe in the cells (U87 cells [4]): 13.7 µM
LD50 (U87 cells [5]): 25 µM

OO [H2O2, hydrogen peroxide]
blebbing of treated cells (U87 cells [2]; 24 hrs): formation of blebs
ddTUNEL: approximate concentration of the probe in the cells (U87 cells [3]): 9.4 µM
Fpg-ddTUNEL: approximate concentration of the probe in the cells (U87 cells [4]): 4.5 µM
effect of NaBH4 reduction on the Fpg-ddTUNEL signal / oxo-base levels (U87 cells [4]; U87 cells): redox sensitive
LD50 (U87 cells [5]): 1000 µM

CCc1c2c(nc3ccc(OC(=O)N4CCC(N5CCCCC5)CC4)cc13)-c1cc3c(c(=O)n1C2)COC(=O)[C@]3(O)CC [Irinotecan, (S)-4,11-diethyl-3,4,12,14-tetrahydro-4-hydroxy-3,14-dioxo1H-pyrano[3′,4′:6,7]-indolizino[1,2-b]quinolin-9-yl-[1,4′bipiperidine]-1′-carboxylate]
number of 3′-T-OH overhang ends / overhanging cuts (U87 cells [2]): 119 per million base pairs
number of blunt-ended breaks (U87 cells [2]): 285 per million base pairs
difference in overhang breaks vs control cells (U87 cells [2]; 24 hrs, Example 2): greater than 50 ×
increase in number of blunt-ended breaks (U87 cells [2]; vs control cells (FIG. 7)): more than 50%
increase in number of overhanging breaks (U87 cells [2]; vs control cells (FIG. 7)): ~3 fold
ddTUNEL: approximate concentration of the probe in the cells (U87 cells [3]): 7.4 µM
Fpg-ddTUNEL: approximate concentration of the probe in the cells (U87 cells [4]): 1.7 µM
effect of NaBH4 reduction on the Fpg-ddTUNEL signal / oxo-base levels (U87 cells [4]; U87 cells): unaltered by reduction

O=NN(CCCl)C(=O)NCCCl [Carmustine, N,N′-bis(2-chloroethyl)-N-nitroso-urea]
number of 3′-T-OH overhang ends / overhanging cuts (U87 cells [2]): ~350 per million base pairs
number of blunt-ended breaks (U87 cells [2]): approximately 900 per million base pairs
change in blunt-ended breaks (U87 cells [2]; 24 hrs, Example 2): massive increases
increase in levels of overhangs (U87 cells [2]; 24 hrs, Example 2): more than an order of magnitude
blebbing of treated cells (U87 cells [2]; 24 hrs): formation of small blebs
ddTUNEL: approximate concentration of the probe in the cells (U87 cells [3]): 22.8 µM
increase in ddTUNEL (U87 cells [3]; U87 cells, vs control): six-fold
Fpg-ddTUNEL: approximate concentration of the probe in the cells (U87 cells [4]): 5.2 µM
effect of NaBH4 reduction on the Fpg-ddTUNEL signal / oxo-base levels (U87 cells [4]; U87 cells): unaltered by reduction
increase in Fpg-ddTUNEL (U87 cells [4]; U87 cells, vs control): six-fold
LD50 (U87 cells [5]): 2.5 µM
difference in cytosolic γ-H2A.X levels, carmustine-treated vs temozolomide-treated cells (U87 cells [6]): 10 fold
transfer of γ-H2A.X into the cytosol (U87 cells [6]): transfer of γ-H2A.X into the cytosol
